tested on: influx of neutrophils to the lung in LPS-challenged rats; assay: Rat LPS neutrophilia model; format: in vivo; conditions: LPS aerosol, intratracheal dosing, in at least one of the range of conditions tested, significance p<0.05
Method: Rat LPS Neutrophilia Model
The effect of compounds on the influx of neutrophils to the lung in LPS-challenged rats is evaluated as follows. The test compound is suspended in one of the following solutions: 0.5% tween 80/PBS, 0.5% tween 80/saline, 10% EtOH/saline (with pH adjusted to 2.0, or 8.0 with HCl, or unadjusted), Saline @pH 2.0, 6.5 or 8.0, 0.5% Tragacanth, 1% DMSO/20% Encapsin/Saline, or acidified 5% Tragacanth. The suspension process may be aided by the use of a glass homogenizer. For intratracheal administration, the animals are anesthetized with inhaled isoflurane and placed in a supine position, the trachea is intubated with a steel gavage needle (1.5 inch, 22 gauge, small ball) or a Penn-Century Microsprayer Aerosolizer (model IA-1B) and 200 ul of dosing solution is delivered. The animals are visually monitored during the recovery process, which typically occurs within two minutes. It is noted that the test compounds may be alternatively administered via the microsprayer in a dry powder blend with a suitable excipient, such as lactose.
Rats treated with compound or vehicle (15 min-24 hours pretreatment) are exposed to an LPS aerosol (100 ug/ml) for 15 min. Four hours later the rats are euthanized with pentobarbital (100 mg/kg, i.p.) and the airways are lavaged with 5 washes of 5 ml of phosphate buffered saline. The harvested cells are stained (Diffquick) and counted to determine total and differential cell data. […] Inhibition of neutrophil levels relative to no compound controls is calculated based on the differential counts.
The data is obtained as % inhibition using a particular concentration and pretreat time.

Compound	inhibition of neutrophilia
CCCNC(=O)c1ccc(C)c(-c2nc(N3CCC(N)CC3)nc3c2ccc(=O)n3-c2c(F)cccc2F)c1 [Example 69, 3-[2-(4-amino-1-piperidinyl)-8-(2,6-difluorophenyl)-7-oxo-7,8-dihydropyrido[2,3-d]pyrimidin-4-yl]-4-methyl-N-propylbenzamide]	statistically significant inhibition
Cc1ccc(C(=O)NC(C)C)cc1-c1nc(N2CCC(N)CC2)nc2c1ccc(=O)n2-c1c(F)cccc1F [Example 68, 3-[2-(4-amino-1-piperidinyl)-8-(2,6-difluorophenyl)-7-oxo-7,8-dihydropyrido[2,3-d]pyrimidin-4-yl]-4-methyl-N-(1-methylethyl)benzamide]	statistically significant inhibition
Cc1ccc(C(=O)NC2CC2)cc1-c1nc(N2CCC(N)CC2)nc2c1ccc(=O)n2-c1c(F)cccc1F [Example 22, 3-[2-(4-amino-1-piperidinyl)-8-(2,6-difluorophenyl)-7-oxo-7,8-dihydropyrido[2,3-d]pyrimidin-4-yl]-N-cyclopropyl-4-methylbenzamide]	statistically significant inhibition
Cc1ccc(C(=O)Nc2nccs2)cc1-c1nc(N(C)CCCN(C)C)nc2c1ccc(=O)n2-c1c(F)cccc1F [Example 107, 3-{8-(2,6-difluorophenyl)-2-[[3-(dimethylamino)propyl](methyl)amino]-7-oxo-7,8-dihydropyrido[2,3-d]pyrimidin-4-yl}-4-methyl-N-1,3-thiazol-2-ylbenzamide]	statistically significant inhibition
Cc1ccc(C(=O)Nc2nccs2)cc1-c1nc(NCc2ncc[nH]2)nc2c1ccc(=O)n2-c1c(F)cccc1F [79(c), 3-{8-(2,6-difluorophenyl)-2-[(1H-imidazol-2-ylmethyl)amino]-7-oxo-7,8-dihydropyrido[2,3-d]pyrimidin-4-yl}-4-methyl-N-1,3-thiazol-2-ylbenzamide]	statistically significant inhibition
CNCCNc1nc(-c2cc(C(=O)Nc3nccs3)ccc2C)c2ccc(=O)n(-c3c(F)cccc3F)c2n1 [Example 61, 3-(8-(2,6-difluorophenyl)-2-{[2-(methylamino)ethyl]amino}-7-oxo-7,8-dihydropyrido[2,3-d]pyrimidin-4-yl)-4-methyl-N-1,3-thiazol-2-ylbenzamide]	statistically significant inhibition
CCCNC(=O)c1cc(F)c(C)c(-c2nc(NCCCN(CC)CC)nc3c2ccc(=O)n3-c2c(F)cccc2F)c1 [Example 181, 3-[2-{[3-(diethylamino)propyl]amino}-8-(2,6-difluorophenyl)-7-oxo-7,8-dihydropyrido[2,3-d]pyrimidin-4-yl]-5-fluoro-4-methyl-N-propylbenzamide]	statistically nonsignificant inhibition
Cc1ccc(C(=O)Nc2nccs2)cc1-c1nc(NCCN(C)C)nc2c1ccc(=O)n2-c1c(F)cccc1F [Example 109, 3-(8-(2,6-difluorophenyl)-2-{[2-(dimethylamino)ethyl]amino}-7-oxo-7,8-dihydropyrido[2,3-d]pyrimidin-4-yl)-4-methyl-N-1,3-thiazol-2-ylbenzamide]	statistically significant inhibition
CCN(CC)CCCNc1nc(-c2cc(C(=O)NCC(F)(F)F)ccc2C)c2ccc(=O)n(-c3c(F)cccc3F)c2n1 [Example 128, 3-[2-{[3-(diethylamino)propyl]amino}-8-(2,6-difluorophenyl)-7-oxo-7,8-dihydropyrido[2,3-d]pyrimidin-4-yl]-4-methyl-N-(2,2,2-trifluoroethyl)benzamide]	inactive
Cc1ccc(C(=O)Nc2nccs2)cc1-c1nc(NCCNC(C)C)nc2c1ccc(=O)n2-c1c(F)cccc1F [Example 103, 3-[8-(2,6-difluorophenyl)-2-({2-[(1-methylethyl)amino]ethyl}amino)-7-oxo-7,8-dihydropyrido[2,3-d]pyrimidin-4-yl]-4-methyl-N-1,3-thiazol-2-ylbenzamide]	statistically significant inhibition
CNC1CCN(c2nc(-c3cc(C(=O)NC(C)C)ccc3C)c3ccc(=O)n(-c4c(F)cccc4F)c3n2)CC1 [113(b), 3-{8-(2,6-difluorophenyl)-2-[4-(methylamino)-1-piperidinyl]-7-oxo-7,8-dihydropyrido[2,3-d]pyrimidin-4-yl}-4-methyl-N-(1-methylethyl)benzamide]	statistically nonsignificant inhibition
Cc1ccc(C(=O)NC2CCC2)cc1-c1nc(N2CCC(N3CCC(C)CC3)CC2)nc2c1ccc(=O)n2-c1c(F)cccc1F [Example 175, N-cyclobutyl-3-[8-(2,6-difluorophenyl)-2-(4-methyl-1,4′-bipiperidin-1′-yl)-7-oxo-7,8-dihydropyrido[2,3-d]pyrimidin-4-yl]-4-methylbenzamide]	inactive
CNCCNc1nc(-c2cc(C(=O)NCCc3ccccc3)ccc2C)c2ccc(=O)n(-c3c(F)cccc3F)c2n1 [Example 29, 3-(8-(2,6-difluorophenyl)-2-{[2-(methylamino)ethyl]amino}-7-oxo-7,8-dihydropyrido[2,3-d]pyrimidin-4-yl)-4-methyl-N-(2-phenylethyl)benzamide]	statistically significant inhibition
Cc1ccc(C(=O)NC2CCCC2)cc1-c1nc(N2CCC(N)CC2)nc2c1ccc(=O)n2-c1c(F)cccc1F [Example 70, 3-[2-(4-amino-1-piperidinyl)-8-(2,6-difluorophenyl)-7-oxo-7,8-dihydropyrido[2,3-d]pyrimidin-4-yl]-N-cyclopentyl-4-methylbenzamide]	statistically nonsignificant inhibition
Cc1ccc(C(=O)NC2CCCC2)cc1-c1nc(N2CCC(N3CCC(C)CC3)CC2)nc2c1ccc(=O)n2-c1c(F)cccc1F [Example 169, N-cyclopentyl-3-[8-(2,6-difluorophenyl)-2-(4-methyl-1,4′-bipiperidin-1′-yl)-7-oxo-7,8-dihydropyrido[2,3-d]pyrimidin-4-yl]-4-methylbenzamide]	statistically nonsignificant inhibition
Cc1ccc(C(=O)NC(C)C)cc1-c1nc(N(C)CCCN(C)C)nc2c1ccc(=O)n2-c1c(F)cccc1F [Example 34, 3-{8-(2,6-difluorophenyl)-2-[[3-(dimethylamino)propyl](methyl)amino]-7-oxo-7,8-dihydropyrido[2,3-d]pyrimidin-4-yl}-4-methyl-N-(1-methylethyl)benzamide]	statistically significant inhibition
Cc1ccc(C(=O)NC2CC2)cc1-c1nc(NCc2ncc[nH]2)nc2c1ccc(=O)n2-c1c(F)cccc1F [Example 23, N-cyclopropyl-3-{8-(2,6-difluorophenyl)-2-[(1H-imidazol-2-ylmethyl)amino]-7-oxo-7,8-dihydropyrido[2,3-d]pyrimidin-4-yl}-4-methylbenzamide]	statistically nonsignificant inhibition
Cc1ccc(C(=O)NC(C)C)cc1-c1nc(N2CCC(N3CCC(C)CC3)CC2)nc2c1ccc(=O)n2-c1c(F)cccc1F [163(c), 3-[8-(2,6-difluorophenyl)-2-(4-methyl-1,4′-bipiperidin-1′-yl)-7-oxo-7,8-dihydropyrido[2,3-d]pyrimidin-4-yl]-4-methyl-N-(1-methylethyl)benzamide]	statistically nonsignificant inhibition
CCCNC(=O)c1ccc(C)c(-c2nc(NCCCN(CC)CC)nc3c2ccc(=O)n3-c2c(F)cccc2F)c1 [Example 122, 3-[2-{[3-(diethylamino)propyl]amino}-8-(2,6-difluorophenyl)-7-oxo-7,8-dihydropyrido[2,3-d]pyrimidin-4-yl]-4-methyl-N-propylbenzamide]	statistically nonsignificant inhibition
CNCCNc1nc(-c2cc(C(=O)Nc3ccc(F)cc3)ccc2C)c2ccc(=O)n(-c3c(F)cccc3F)c2n1 [Example 60, 3-(8-(2,6-difluorophenyl)-2-{[2-(methylamino)ethyl]amino}-7-oxo-7,8-dihydropyrido[2,3-d]pyrimidin-4-yl)-N-(4-fluorophenyl)-4-methylbenzamide]	statistically significant inhibition
CCNC(=O)c1ccc(C)c(-c2nc(NCCCN(CC)CC)nc3c2ccc(=O)n3-c2c(F)cccc2F)c1 [Example 129, 3-[2-{[3-(diethylamino)propyl]amino}-8-(2,6-difluorophenyl)-7-oxo-7,8-dihydropyrido[2,3-d]pyrimidin-4-yl]-N-ethyl-4-methylbenzamide]	statistically nonsignificant inhibition
CCN(CC)CCCNc1nc(-c2cc(C(=O)NCCF)ccc2C)c2ccc(=O)n(-c3c(F)cccc3F)c2n1 [Example 133, 3-[2-{[3-(diethylamino)propyl]amino}-8-(2,6-difluorophenyl)-7-oxo-7,8-dihydropyrido[2,3-d]pyrimidin-4-yl]-N-(2-fluoroethyl)-4-methylbenzamidetrifluoroacetate]	statistically significant inhibition
Cc1ccc(C(=O)NCc2ccccc2)cc1-c1nc(NCc2ncc[nH]2)nc2c1ccc(=O)n2-c1c(F)cccc1F [Example 77, 3-{8-(2,6-difluorophenyl)-2-[(1H-imidazol-2-ylmethyl)amino]-7-oxo-7,8-dihydropyrido[2,3-d]pyrimidin-4-yl}-4-methyl-N-(phenylmethyl)benzamide]	statistically significant inhibition
